Test results taken from US12077503B2, “Substituted cyclic amides and their use as herbicides” (FMC CORPORATION, priority 2015, dated 2024).

Key:
Assay type in all cases: in vivo
Kochia (Kochia scoparia) [1] = experiment: Test A preemergence; details: Bassia scoparia, pre-emergence, 240 h, preemergence, read-out: Kochia plant response rating
Outline: (§1)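 Greenhouse, ~10 d after spray; visual injury vs untreated controls, 0 = no effect, 100 = complete control. Preemergence: directed soil spray over planted seeds. Postemergence: plants 2–10 cm, 1–2 leaf stage. Loam/sand blend. Compound in non-phytotoxic solvent with surfactant.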

[2] = test system: barnyardgrass (Echinochloa crus-galli); experiment: Test A preemergence; details: Echinochloa crus-galli, pre-emergence, 240 h
Outline: as §1

[3] = test system: giant foxtail (Setaria faberii); experiment: Test A preemergence; details: Setaria faberi, pre-emergence, 240 h
Outline: as §1

[4] = test system: pigweed (Amaranthus retroflexus); experiment: Test A preemergence; details: Amaranthus retroflexus, pre-emergence, 240 h, preemergence, read-out: Pigweed plant response rating
[5] = test system: ragweed (common ragweed, Ambrosia elatior); experiment: Test A preemergence; details: Ambrosia artemisiifolia, pre-emergence, 240 h, preemergence, read-out: Ragweed plant response rating
Outline: as §1

[6] = test system: ryegrass, Italian (Italian ryegrass, Lolium multiflorum); experiment: Test A preemergence; details: Lolium multiflorum, pre-emergence, 240 h, preemergence, read-out: Ryegrass, Italian plant response rating
Outline: as §1

[7] = test system: Galium (catchweed bedstraw, Galium aparine); experiment: Test A postemergence; details: Galium, post-emergence, 240 h, postemergence, read-out: Galium plant response rating
Outline: as §1

Kochia (Kochia scoparia) [8] = experiment: Test A postemergence; details: Bassia scoparia, post-emergence, 240 h, postemergence, read-out: Kochia plant response rating
Outline: as §1

[9] = test system: barnyardgrass (Echinochloa crus-galli); experiment: Test A postemergence; details: Echinochloa crus-galli, post-emergence, 240 h, postemergence, read-out: Barnyardgrass plant response rating
Outline: as §1

[10] = test system: blackgrass (Alopecurus myosuroides); experiment: Test A postemergence; details: Alopecurus myosuroides, post-emergence, 240 h, postemergence, read-out: Blackgrass plant response rating
Outline: as §1

corn (Zea mays) = experiment: Test A postemergence; details: Zea mays, post-emergence, 240 h, postemergence, read-out: Corn plant response rating
Outline: as §1

[11] = test system: giant foxtail (Setaria faberii); experiment: Test A postemergence; details: Setaria faberi, post-emergence, 240 h, postemergence, read-out: Foxtail, Giant plant response rating
Outline: as §1

[12] = test system: pigweed (Amaranthus retroflexus); experiment: Test A postemergence; details: Amaranthus retroflexus, post-emergence, 240 h, postemergence, read-out: Pigweed plant response rating
Outline: as §1

[13] = test system: ragweed (common ragweed, Ambrosia elatior); experiment: Test A postemergence; details: Ambrosia artemisiifolia, post-emergence, 240 h, postemergence, read-out: Ragweed plant response rating
Outline: as §1

[14] = test system: ryegrass, Italian (Italian ryegrass, Lolium multiflorum); experiment: Test A postemergence; details: Lolium multiflorum, post-emergence, 240 h, postemergence, read-out: Ryegrass, Italian plant response rating
Outline: as §1

[15] = test system: wheat (Triticum aestivum); experiment: Test A postemergence; details: Triticum aestivum, post-emergence, 240 h, postemergence, read-out: Wheat plant response rating
Outline: as §1

[16] = 125 g ai/ha, 0 to 100 scale where 0 is no effect and 100 is complete control, approx. 10 d
[17] = 500 g ai/ha, visual injury rating about 10 d after treatment, 0 to 100 scale (0 no effect, 100 complete control)
[18] = 125 g ai/ha, visual injury on 0 to 100 scale (0 no effect, 100 complete control), approx. 10 d
[19] = 500 g ai/ha, 0 to 100 scale, 0 is no effect, 100 is complete control

## CN1CC(c2ccccc2OC(F)(F)C(F)F)C(C(=O)Nc2cccc(F)c2F)C1=O (centres unmarked) [Compound 1056]
Kochia (Kochia scoparia) [1]; [16]
  pest or weed control at 125 g/ha: 0%
Kochia (Kochia scoparia) [1]; [17]
  pest or weed control at 500 g/ha: 0%
[2]; 125 g ai/ha, Preemergence, visual injury rating after approximately 10 d, read-out: Barnyardgrass plant response rating (0 to 100 scale, 0 is no effect, 100 is complete control)
  pest or weed control at 125 g/ha: 90%
[2]; 500 g ai/ha, preemergence, visual injury rating about 10 d after treatment, 0 to 100 scale (0 no effect, 100 complete control), read-out: Barnyardgrass plant response rating
  pest or weed control at 500 g/ha: 90%
[3]; 125 g ai/ha, Preemergence, visual injury rating after approximately 10 d, read-out: Foxtail, Giant plant response rating (0 to 100 scale, 0 is no effect, 100 is complete control)
  pest or weed control at 125 g/ha: 60%
[3]; 500 g ai/ha, preemergence, visual injury rating about 10 d after treatment, 0 to 100 scale (0 no effect, 100 complete control), read-out: Foxtail, Giant plant response rating
  pest or weed control at 500 g/ha: 90%
[4]; [16]
  pest or weed control at 125 g/ha: 0%
[4]; [17]
  pest or weed control at 500 g/ha: 0%
[5]; [16]
  pest or weed control at 125 g/ha: 0%
[5]; [17]
  pest or weed control at 500 g/ha: 0%
[6]; [16]
  pest or weed control at 125 g/ha: 0%
[6]; [17]
  pest or weed control at 500 g/ha: 0%
[7]; [18]
  pest or weed control at 125 g/ha: 0%
[7]; [19]
  pest or weed control at 500 g/ha: 0%
Kochia (Kochia scoparia) [8]; [18]
  pest or weed control at 125 g/ha: 0%
Kochia (Kochia scoparia) [8]; [19]
  pest or weed control at 500 g/ha: 0%
[9]; [18]
  pest or weed control at 125 g/ha: 20%
[9]; [19]
  pest or weed control at 500 g/ha: 50%
[10]; [18]
  pest or weed control at 125 g/ha: 0%
[10]; [19]
  pest or weed control at 500 g/ha: 0%
Corn (Zea mays); [18]
  plant injury at 125 g/ha: 0%
Corn (Zea mays); [19]
  plant injury at 500 g/ha: 0%
[11]; [18]
  pest or weed control at 125 g/ha: 0%
[11]; [19]
  pest or weed control at 500 g/ha: 20%
[12]; [18]
  pest or weed control at 125 g/ha: 0%
[12]; [19]
  pest or weed control at 500 g/ha: 0%
[13]; [18]
  pest or weed control at 125 g/ha: 0%
[13]; [19]
  pest or weed control at 500 g/ha: 0%
[14]; [18]
  pest or weed control at 125 g/ha: 0%
[14]; [19]
  pest or weed control at 500 g/ha: 0%
[15]; [18]
  plant injury at 125 g/ha: 0%
[15]; [19]
  plant injury at 500 g/ha: 0%
